Test results: patent publication US9540299B2, “MTOR-independent activator of TFEB for autophagy enhancement and uses thereof” (Hong Kong Baptist University, priority 2015, dated 2017)

Columns and labels:
3×Flag-TFEB = molecular target: T1, 3×Flag-TFEB (Homo sapiens, UniProt P19484); test: Nuclear translocation of Flag-TFEB in Hela cells stably expressing 3×Flag-TFEB (immunostaining, western blot); assay type: cell-based; details: analogs 1 μM, curcumin 10 μM, 12 h, Torin 1 1 μM, 2 h
T1 construct: expressed in transfected cells
T1 sequence (P19484 1-476): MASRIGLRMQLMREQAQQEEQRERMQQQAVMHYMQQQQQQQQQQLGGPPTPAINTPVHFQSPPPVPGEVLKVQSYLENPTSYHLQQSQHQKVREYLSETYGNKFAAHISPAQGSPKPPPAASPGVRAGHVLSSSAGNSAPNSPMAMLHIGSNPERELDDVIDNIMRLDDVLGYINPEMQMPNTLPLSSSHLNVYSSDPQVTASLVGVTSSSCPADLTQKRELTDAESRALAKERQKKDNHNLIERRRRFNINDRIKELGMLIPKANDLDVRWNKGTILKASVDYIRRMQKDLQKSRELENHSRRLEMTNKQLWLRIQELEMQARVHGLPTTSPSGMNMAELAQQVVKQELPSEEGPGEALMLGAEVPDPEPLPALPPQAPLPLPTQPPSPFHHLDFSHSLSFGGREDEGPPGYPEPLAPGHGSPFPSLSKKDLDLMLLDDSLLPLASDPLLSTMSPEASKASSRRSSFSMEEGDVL
Procedure: Cells were treated with curcumin (Cur, 10 μM), A2, B3 and C1 (1 μM) for 12 h. […] Data is quantified by ImageJ software and is presented as mean±SD of three replicates for each treatment conditions. At least 1000 cells are analyzed in each treatment group. *p<0.05 vs. the control (0.1% DMSO). FIG. 4C is a western blot showing the expression of endogenous TFEB. […] Data are presented as the mean±SD from three independent experiments. *p<0.05 vs. the control (0.1% DMSO). FIG. 4E is fluorescence images showing expression of 3×Flag-TFEB in Hela cells having treated with Cur (10 μM), A2, B3 and C1 (1 μM) for 12 h. Torin 1 (1 μM) treatment for 2 h is used as a positive control. Cells were fixed and stained with anti-Flag antibody. […] FIG. 4G is the western blot showing the expression of Flag-tagged TFEB in the cytosolic (Cyt.) and nuclear (Nuc.) fractions. ACTB and H3F3A (H3 histone, family 3A) are used as loading control of cytoplasmic and nuclear fraction, respectively. FIG. 4H is showing the relative intensity of TFEB in the cytosolic and nuclear fractions. Data are presented as the mean±SD from three independent experiments. *p<0.05 vs. the control (0.1% DMSO).
HeLa cells stably expressing 3×Flag-TFEB are treated with curcumin analogs E2, E3 and E4 (1 μM) for 12 hours. Torin 1 (1 μM) treatment for 2 hours is used as a positive control. Cells are fixed and stained with anti-Flag antibody (red) and DAPI (blue) (FIG. 18A). TFEB translocate into nucleus are quantified (FIG. 18B). Quantification data are presented as mean±SD of three replicates in a representative experiment. At least 500 cells are analyzed in each treatment group.
HeLa cells stably expressing 3×Flag-TFEB are treated with curcumin analogs E2, E3 and E4 (1 μM) for 12 hours. Torin 1 (1 μM) treatment for 2 hours is used as a positive control. The expression of TFEB in the cytosolic (Cyt.) and nuclear (Nuc.) fractions are determined by western blotting (FIG. 19A) and quantified (FIG. 19B). TUBB (β-tubulin) and H3F3A (H3 histone, family 3A) are used as loading control of cytoplasmic and nuclear fraction respectively. Quantification data are presented as the mean±SD from three independent experiments. *p<0.05 vs. the control (0.1% DMSO).
N2a, Hela and Hela cells stably expressing 3×-Flag-TFEB are cultured in DMEM supplemented with 10% FBS. SH-SY5Y cells are cultured in DMEM/F12 supplemented with 10% FBS. For drug treatment, the full medium is replaced by fresh Opti-MEM I and then the compounds (in 0.1% DMSO) are added to the cells and incubated for 12 h. Inducible PC12 cells overexpressing SNCA (WT and A53T) (a kind gift from Prof. David C. Rubinsztein at Cambridge University) are grown in DMEM supplemented with 10% horse serum, 5% FBS, 50 μg/ml G418, and 150 μg/ml hygromycin B at 37° C., 10% CO2. Cells are treated with 2 μg/ml doxycycline (Dox) for 24 h to induce SNCA expression. The full medium is changed to Opti-MEM I containing the testing compounds for another 48 h.
Cells are lysed on ice in 1× Lysis Buffer (9803, Life Technologies) with complete protease inhibitor mixture (04693124001, Roche Applied Science). Animal tissues are homogenized in nine volumes of ice-cold PBS supplemented with protease inhibitors. Cytosolic and nuclear fractions are isolated using protocols similar to those described previously. Anti-Flag or TFEB antibody is added to the whole cell lysates and Dynabeads® Protein G (10003D, Life Technologies) is used for immunoprecipitation. Proteins are separated by 10-15% SDS-PAGE, transferred, and blotted with the antibodies described. The blots are then incubated with secondary antibodies or the Clean-Blot IP Detection Reagent (21230, Thermo Scientific) at room temperature for 1 h. The protein signals are detected by ECL kit (32106, Pierce) and quantified using ImageJ software.
Cells are seeded on coverslips placed in 24-well plates. […]

N2a cells = test: LC3 puncta and tfLC3 autophagy flux imaging in N2a cells; assay type: cell-based, mouse; details: N2a cells transfected with tfLC3, 12 hours
Procedure: N2a cells are treated with E4 (1 μM) in the presence or absence of CQ for 12 hours. The cells are fixed and stained with LC3 antibody (red) and DAPI (blue). Representative cells are then selected and photographed under a DeltaVision Deconvolution Microscope (GE Healthcare).
N2a cells are transiently transfected with mRFP-GFP-LC3 (tfLC3) plasmid and then treated with E4 (1 μM) or CQ (1 μM) for 12 hours. Representative cells are then selected and photographed under a DeltaVision Deconvolution Microscope (GE Healthcare).
After transiently knockdown the expression of TFEB, N2a cells are treated with E4 (1 μM) for 12 hours, the cells were then stained with LC3 antibody (red) and DAPI (blue).
Cells are seeded on coverslips placed in 24-well plates. For autophagy flux assay, cells are transfected with tfLC3 plasmid for 24 hours and then treated with the indicated compounds. For other assays, at the end drug treatment, slices are fixed with 3.7% paraformaldehyde, permeabilized in 0.2% Triton X-100 and blocked with 5% BSA. After blocking, the slices are stained with anti-TFEB (1:200) or anti-LC3 (1:500) antibodies overnight at 4° C. […] Cells are visualized using the Eclipse 80i fluorescence microscope (Nikon Instruments Inc.) or the DeltaVision Deconvolution Microscope (GE Healthcare).

Compound	nuclear translocation of Flag-TFEB (3×Flag-TFEB)	mRFP-GFP-LC3 (tfLC3) puncta (autophagy flux, autolysosome formation) (N2a cells)
CCC(=O)N1CCN(c2ccc(-n3c(=O)ccc4cnc5ccc(-c6cnc7ccccc7c6)cc5c43)cc2C(F)(F)F)CC1 [Torin 1, reference compound]	significantly promotes	
CCN(CC)CCCC(C)Nc1ccnc2cc(Cl)ccc12 (centres unmarked) [CQ, chloroquine, reference compound]		induced accumulation and colocalization of both GFP and mRFP fluorescence
